Assay results: BindingDB's records for PubMed 36250680 (University of Pisa, 2022)

Molecular target: Macrophage metalloelastase (Homo sapiens, UniProt P39900)
Experiment: Inhibition of MMP12 (unknown origin)

Macrophage metalloelastase, sequence (P39900 whole entry): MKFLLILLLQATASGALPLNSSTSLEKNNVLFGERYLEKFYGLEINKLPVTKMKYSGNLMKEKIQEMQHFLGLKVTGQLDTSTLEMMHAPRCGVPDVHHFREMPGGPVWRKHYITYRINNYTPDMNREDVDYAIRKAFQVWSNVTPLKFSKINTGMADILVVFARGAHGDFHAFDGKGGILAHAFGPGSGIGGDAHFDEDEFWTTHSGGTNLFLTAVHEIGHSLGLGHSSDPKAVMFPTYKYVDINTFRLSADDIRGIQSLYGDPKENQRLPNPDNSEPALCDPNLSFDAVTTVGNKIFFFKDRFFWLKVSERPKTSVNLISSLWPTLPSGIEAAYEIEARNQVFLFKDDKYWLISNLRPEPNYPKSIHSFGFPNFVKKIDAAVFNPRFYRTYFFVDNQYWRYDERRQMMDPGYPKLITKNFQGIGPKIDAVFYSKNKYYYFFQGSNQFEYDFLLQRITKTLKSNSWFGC

Ki: 2.03 µM
Compound: Oc1cccc(O)c1O
